Measured values from US11987578B1, “7-(4-((5-(2-chlorobenzylideneamino)-2-thioxo-1,3,4-thiadiazol-3(2H)-yl)methyl)piperazin-1-yl)-1-cyclopropyl-6-fluoro-4-oxo-1,4-dihydroquinoline-3-carboxylic acid as an anti-inflammatory compound” (KING FAISAL UNIVERSITY, priority 2023, dated 2024).
Where two headings read alike, the source gives them in different places.

Tests used:
[1] = molecular target: Bovine Serum Albumin (Bos taurus, UniProt P02769); test: Bovine Serum Albumin Assay (BSA), inhibition of heat-induced protein denaturation; type: biochemical
Chain of Bovine Serum Albumin (P02769 25-607): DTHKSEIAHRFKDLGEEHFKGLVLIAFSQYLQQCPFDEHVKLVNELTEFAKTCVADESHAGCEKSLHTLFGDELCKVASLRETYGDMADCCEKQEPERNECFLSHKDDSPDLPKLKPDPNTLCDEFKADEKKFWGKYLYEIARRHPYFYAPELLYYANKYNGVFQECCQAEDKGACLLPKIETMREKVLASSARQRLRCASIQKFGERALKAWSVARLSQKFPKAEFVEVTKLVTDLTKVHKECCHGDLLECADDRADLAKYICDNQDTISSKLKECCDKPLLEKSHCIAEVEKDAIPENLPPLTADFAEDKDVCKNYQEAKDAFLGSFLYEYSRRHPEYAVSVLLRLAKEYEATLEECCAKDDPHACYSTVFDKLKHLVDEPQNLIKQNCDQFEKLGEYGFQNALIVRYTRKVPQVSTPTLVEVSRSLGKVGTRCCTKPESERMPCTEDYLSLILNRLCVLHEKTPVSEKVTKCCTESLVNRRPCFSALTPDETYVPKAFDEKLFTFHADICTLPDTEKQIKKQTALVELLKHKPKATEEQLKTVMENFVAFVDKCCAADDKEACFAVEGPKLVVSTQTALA
Procedure: Bovine Serum Albumin Assay (BSA) In vitro-inflammatory activities of the tested samples were determined using a modified method of the BSA assay reported by Williams et al. BSA solution (0.4%, w/v) was prepared in Tris Buffered Saline. The pH was adjusted to 6.4 with glacial acetic acid. Different dilutions of 20, 40, 60, 80, and 100 μg/mL of 7-(4-((5-(2-chlorobenzylideneamino)-2-thioxo-1,3,4-thiadiazol-3(2H)-yl)methyl)piperazin-1-yl)-1-cyclopropyl-6-fluoro-4-oxo-1,4-dihydroquinoline-3-carboxylic acid stock solutions were added to test tubes containing 1 mL of 0.4%, w/v BSA buffer solution. Both negative (solvent) and positive (aspirin) controls were assayed in a similar manner. The solutions were then heated in a water bath at 72° C. for 10 minutes and cooled for 20 minutes under laboratory conditions. The turbidity of the solutions (level of protein precipitation) was measured at 660 nm in Spectrophotometer (V-770 UV-Visible/NIR Spectrophotometer). The percentage inhibition of precipitation (protein denaturation) was determined relative to the negative control using the following equation: [formula]

Row | Structure (SMILES) | in vitro anti-inflammatory activity ([1]; BSA assay, result in words) | inhibition at 100 µg/mL ([1]; pH 6.4, read-out: percentage inhibition of precipitation (protein denaturation)) | melting point | inhibition at 100 µg/mL ([1]; 100 μg/ml, 0.4% w/v BSA, pH 6.4, 72° C. for 10 minutes, turbidity at 660 nm, relative to negative control, read-out: percentage inhibition of precipitation (protein denaturation))
1 | O=C(O)c1cn(C2CC2)c2cc(N3CCN(Cn4nc(/N=C/c5ccccc5Cl)sc4=S)CC3)c(F)cc2c1=O [7-(4-((5-(2-chlorobenzylideneamino)-2-thioxo-1,3,4-thiadiazol-3(2H)-yl)methyl)piperazin-1-yl)-1-cyclopropyl-6-fluoro-4-oxo-1,4-dihydroquinoline-3-carboxylic acid] | considerable anti-inflammatory effect | 90.2% | 207 to 209 °C | –
2 | CC(=O)Oc1ccccc1C(=O)O [aspirin, reference compound] | – | – | – | 96.8%
